Laboratory results reported in patent publication US9062048B2, “Cyclohexyl-azetidinyl antagonists of CCR2” (Janssen Pharmaceutica NV, priority 2010, dated 2015).

Target: CCR2 (Homo sapiens (Human), UniProt P41597)
Experiment: MCP-1 Receptor Binding Assay in THP-1 Cells;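 also: THP-1 is a human monocytic cell line, and nonspecific binding was defined with 1 µM unlabeled MCP-1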
Settings: 0.5 nM 125I labeled MCP-1, 2 hours at 30° C., read-out: Inhibition of MCP-1 Binding IC50 MCP1B

CCR2, sequence (P41597 whole entry): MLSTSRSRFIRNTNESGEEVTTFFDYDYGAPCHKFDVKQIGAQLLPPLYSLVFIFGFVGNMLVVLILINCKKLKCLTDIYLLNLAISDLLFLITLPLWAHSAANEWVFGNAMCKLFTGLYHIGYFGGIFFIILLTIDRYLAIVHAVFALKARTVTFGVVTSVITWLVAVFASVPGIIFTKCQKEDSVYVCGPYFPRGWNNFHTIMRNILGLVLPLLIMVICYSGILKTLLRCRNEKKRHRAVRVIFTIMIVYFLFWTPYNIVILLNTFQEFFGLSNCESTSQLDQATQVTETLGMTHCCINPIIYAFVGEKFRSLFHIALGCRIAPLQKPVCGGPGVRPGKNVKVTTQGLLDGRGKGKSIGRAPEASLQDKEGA

| IC50 | Structure (SMILES) |
| --- | --- |
| 11 nM | Cc1ccc([C@]2(O)CC[C@H](N3CC(NC(=O)CNc4ncnc5ccc(C(F)(F)F)cc45)C3)CC2)cn1 [Example 75, N-(1-((1r,4r)-4-hydroxy-4-(6-methylpyridin-3-yl)cyclohexyl)azetidin-3-yl)-2-((6-(trifluoromethyl)quinazolin-4-yl)amino)acetamide] |
| 40 nM | N#Cc1cc(NCC(=O)NC2CN([C@H]3CC[C@@H](n4ccccc4=O)CC3)C2)c2cc(C(F)(F)F)ccc2n1 [Example 60, 2-((2-cyano-6-(trifluoromethyl)quinolin-4-yl)amino)-N-(1-((1s,4s)-4-(2-oxopyridin-1(2H)-yl)cyclohexyl)azetidin-3-yl)acetamide] |
| 8290 nM | CC(C)[C@@H](O)[C@H]1CC[C@@H](N2CC(NC(=O)CNc3nncc4ccc(C(F)(F)F)cc34)C2)CC1 (racemic) [Example 159, N-(1-((1R,4s)-4-((S)-1-hydroxy-2-methylpropyl)cyclohexyl)azetidin-3-yl)-2-((7-(trifluoromethyl)phthalazin-1-yl)amino)acetamide] |
| 210 nM | CN(C(=O)OCc1ccccc1)[C@H]1CC[C@@H](N2CC(NC(=O)CNc3ncnc4ccc(C(F)(F)F)cc34)C2)CC1 [Example 42] |
| 19 nM | O=C(CNc1ncnc2ccc(C(F)(F)F)cc12)NC1CN([C@H]2CC[C@@H](CCO)CC2)C1 [Example 108, N-(1-((1s,4s)-4-(2-hydroxyethyl)cyclohexyl)azetidin-3-yl)-2-((6-(trifluoromethyl)quinazolin-4-yl)amino)acetamide] |
| 1900 nM | CCC(NC(C)=O)[C@H]1CC[C@@H](N2CC(NC(=O)CNc3ncnc4ccc(C(F)(F)F)cc34)C2)CC1 (stereo partly drawn) [Example 138, N-(1-((1R,4s)-4-((S)-1-acetamidopropyl)cyclohexyl)azetidin-3-yl)-2-((6-(trifluoromethyl)quinazolin-4-yl)amino)acetamide] |
| 6080 nM | CC[C@@H](O)[C@H]1CC[C@H](N2CC(NC(=O)CNc3nncc4ccc(C(F)(F)F)cc34)C2)CC1 [Example 154, N-(1-((1R,4r)-4-((R)-1-hydroxypropyl)cyclohexyl)azetidin-3-yl)-2-((7-(trifluoromethyl)phthalazin-1-yl)amino)acetamide] |
| 300 nM | C=CCC(O)(CC=C)[C@H]1CC[C@@H](N2CC(NC(=O)CNc3ncnc4ccc(C(F)(F)F)cc34)C2)CC1 [Example 31, N-(1-((1s,4s)-4-(4-hydroxyhepta-1,6-dien-4-yl)cyclohexyl)azetidin-3-yl)-2-((6-(trifluoromethyl)quinazolin-4-yl)amino)acetamide] |
| 9 nM | C=C[C@H]1CC[C@@H](N2CC(NC(=O)CNc3ncnc4ccc(C(F)(F)F)cc34)C2)CC1 [Example 9, 2-((6-(trifluoromethyl)quinazolin-4-yl)amino)-N-(1-((1s,4s)-4-vinylcyclohexyl)azetidin-3-yl)acetamide and 2-((6-(trifluoromethyl)quinazolin-4-yl)amino)-N-(1-((1r,4r)-4-vinylcyclohexyl)azetidin-3-yl)acetamide] |
| 520 nM | CC(=O)N(C)[C@H]1CC[C@@H](N2CC(NC(=O)CNc3ncnc4ccc(C(F)(F)F)cc34)C2)CC1 [Example 44] |
| 73 nM | O=C(CNc1ncnc2ccc(C(F)(F)F)cc12)NC1CN([C@H]2CC[C@@H](C(O)C(F)(F)F)CC2)C1 (stereo partly drawn) [Example 34, N-(1-((1R,4s)-4-(2,2,2-trifluoro-1-hydroxyethyl)cyclohexyl)azetidin-3-yl)-2-((6-(trifluoromethyl)quinazolin-4-yl)amino)acetamide] |
| 83 nM | CCC(OC)[C@H]1CC[C@@H](N2CC(NC(=O)CNc3ncnc4ccc(C(F)(F)F)cc34)C2)CC1 (some centres unmarked) [Example 120, N-(1-((1s,4s)-4-(1-methoxypropyl)cyclohexyl)azetidin-3-yl)-2-((6-(trifluoromethyl)quinazolin-4-yl)amino)acetamide] |
| 2560 nM | CC(C)[C@@H](O)[C@H]1CC[C@H](N2CC(NC(=O)CNc3cnnc4ccc(C(F)(F)F)cc34)C2)CC1 (racemic) [Example 158, N-(1-((1R,4r)-4-((R)-1-hydroxy-2-methylpropyl)cyclohexyl)azetidin-3-yl)-2-((6-(trifluoromethyl)cinnolin-4-yl)amino)acetamide] |
| 14 nM | CCOCC1CCC(N2CC(NC(=O)CNc3ncnc4ccc(C(F)(F)F)cc34)C2)CC1 (centres unmarked) [Example 105, N-(1-(4-(ethoxymethyl)cyclohexyl)azetidin-3-yl)-2-((6-(trifluoromethyl)quinazolin-4-yl)amino)acetamide] |
| 160 nM | O=C(CNc1ncnc2ccc(C(F)(F)F)cc12)NC1CN([C@H]2CC[C@@H](C3CCOCC3)CC2)C1 [Example 38, N-(1-((1s,4s)-4-(tetrahydro-2H-pyran-4-yl)cyclohexyl)azetidin-3-yl)-2-((6-(trifluoromethyl)quinazolin-4-yl)amino)acetamide] |
| 830 nM | CN(CC(=O)NC1CN([C@H]2CC[C@@](O)(c3nccs3)CC2)C1)c1ncnc2ccc(C(F)(F)F)cc12 [Example 64, N-(1-((1r,4r)-4-hydroxy-4-(thiazol-2-yl)cyclohexyl)azetidin-3-yl)-2-(methyl(6-(trifluoromethyl)quinazolin-4-yl)amino)acetamide] |
| 78 nM | O=C(CNc1ncnc2ccc(C(F)(F)F)cc12)NC1CN(C2CCC(N3CCCC3=O)CC2)C1 (centres unmarked) [Example 40, N-(1-(4-(2-oxopyrrolidin-1-yl)cyclohexyl)azetidin-3-yl)-2-((6-(trifluoromethyl)quinazolin-4-yl)amino)acetamide] |
| 209 nM | CCC(O)(CC)[C@H]1CC[C@@H](N2CC(NC(=O)CNc3ncnc4ccc(C(F)(F)F)cc34)C2)CC1 [Example 30, N-(1-((1s,4s)-4-(3-hydroxypentan-3-yl)cyclohexyl)azetidin-3-yl)-2-((6-(trifluoromethyl)quinazolin-4-yl)amino)acetamide] |
| 280 nM | O=C(CNc1ncnc2ccc(C(F)(F)F)cc12)NC1CN([C@H]2CC[C@@H](N3C(=O)CCC3=O)CC2)C1 [Example 57, N-(1-((1s,4s)-4-(2,5-dioxopyrrolidin-1-yl)cyclohexyl)azetidin-3-yl)-2-((6-(trifluoromethyl)quinazolin-4-yl)amino)acetamide] |
| 200 nM | CCNC(=O)C1CCC(N2CC(NC(=O)CNc3ncnc4ccc(C(F)(F)F)cc34)C2)CC1 (centres unmarked) [Example 127, N-ethyl-4-(3-(2-((6-(trifluoromethyl)quinazolin-4-yl)amino)acetamido)azetidin-1-yl)cyclohexanecarboxamide] |
| 16 nM | C=CC(O)[C@H]1CC[C@@H](N2CC(NC(=O)CNc3ncnc4ccc(C(F)(F)F)cc34)C2)CC1 (stereo partly drawn) [Example 92, N-(1-((1S,4s)-4-(1-hydroxyallyl)cyclohexyl)azetidin-3-yl)-2-((6-(trifluoromethyl)quinazolin-4-yl)amino)acetamide] |
| 58 nM | O=C(CNc1ncnc2ccc(C(F)(F)F)cc12)NC1CN([C@H]2CC[C@@H](C3CCOC(=O)N3)CC2)C1 (stereo partly drawn) [Example 17, N-(1-((1R,4s)-4-(2-oxo-1,3-oxazinan-4-yl)cyclohexyl)azetidin-3-yl)-2-((6-(trifluoromethyl)quinazolin-4-yl)amino)acetamide] |
| 13 nM | CCOC(=O)[C@H]1CC[C@@H](N2CC(NC(=O)CNc3ncnc4ccc(C(F)(F)F)cc34)C2)CC1 [Example 106, (1s,4s)-ethyl 4-(3-(2-((6-(trifluoromethyl)quinazolin-4-yl)amino)acetamido)azetidin-1-yl)cyclohexanecarboxylate] |
